Reference: paper PMC12384813
Like-named read-outs stand apart in the source and are kept apart here. Blank lines part the entries; values can stand above or below the molecule they belong to.

How the values were obtained:
U87 MG cells [1] = experiment: cells; format: cell-based, human; conditions: U87 MG
Experimental: In this procedure, U87 MG (2 × 10^4 cells per well) were seeded in BD falcon transparent 96-well plates and incubated for 24 h.

[2] = design: method as in PMID 30023392; conditions: daily cisplatin for 5 days before radiation ref 24; cited from earlier work
[3] = test system: SVG p12 normal glial cells
SVG p12 cells [4] = experiment: Internalization of ^64Cu-NOTA conjugates (glycine-HCl wash); format: cell-based, human; conditions: Table S2
U87 MG cells [5] = experiment: Cellular uptake of ^64Cu-NOTA conjugates; format: cell-based, human
Experimental: (§1) U87 MG (1 × 10^5 per well) were seeded in corning 24-well plates and cultured in DMEM with 10% FBS at 37 °C. […] For uptake assay, cells were washed with PBS to collect surface-bound and internalized activity, and for internalization assay, glycine-HCl wash was performed to remove surface bound activity. Moreover, cells were harvested, counted, and radioactivity was measured using a gamma counter. Results were expressed as percentage of total activity (%) in counts per min (CPM)/10^6 cells. For efflux studies, U87 MG cells were incubated with the complexes for 1 h, then washed with PBS, and replaced with fresh medium. The retained activity was measured over 0 to 24 h after washing.

[6] = Plasma stability by radio-TLC; format: in vitro ADME; conditions: 48 h, 37 °C, mouse plasma
Experimental: To precipitate plasma proteins, the samples were treated twice with ethanol (1:1, v/v), vortexed for 1 min, and centrifuged at 7000 rpm for 10 min. The soluble fraction was separated by ultracentrifugation, and radioactivity was measured. The resulting supernatant was analyzed by radio-TLC on C18 plates. […] Radio-TLC was developed using 0.1 M sodium citrate buffer (pH 5.5), and radiodetection was performed with an Instant Imager system (BioScan, Washington, DC, USA) (Figure S5C). The supernatant fraction was then analyzed using the same methodology described above.

SVG p12 cells [7] = experiment: Cellular uptake of ^64Cu-NOTA conjugates; format: cell-based, human; conditions: Table S1
bovine serum albumin = bovine serum albumin (Bos taurus, UniProt P02769); experiment: Binding to bovine serum albumin; format: in vitro ADME
U87 MG cells [8] = experiment: Efflux kinetics of ^64Cu-NOTA conjugates; format: cell-based, human; conditions: Table S3
Experimental: as §1

SVG p12 cells [9] = experiment: Efflux kinetics of ^64Cu-NOTA conjugates; format: cell-based, human; conditions: Table S3
SVG p12 cells [10] = experiment: Subcellular localization (nucleus/cytoplasm fractions); format: cell-based, human
Experimental: (§2) The nucleus and cytoplasm of U87 MG and SVG p12 cells were extracted following established procedures as previously reported. […] After incubation, cells were washed and incubated on ice with CSK buffer (0.5% Triton X-100, 300 mM sucrose, 100 mM NaCl, 1 mM EDTA, 2 mM MgCl2, and 10 mM HEPES, pH 6.8) for 2 min. After 5 min centrifugation, supernatant containing cytoplasmic extract was collected and transferred in labeled tubes. The resulting pellets were incubated on ice for 2 min with CSK buffer without Triton X-100 to extract the nuclear fraction. The buffer containing the nuclear fraction was collected into separate tubes. The radioactivity in both cytoplasmic and nuclear fractions was measured using a gamma counter (HIDEX Automatic Gamma Counter 2014).

U87 MG cells [11] = experiment: as above; format: cell-based, human
Experimental: as §2

U87 MG cells [12] = experiment: Internalization of ^64Cu-NOTA conjugates (glycine-HCl wash); format: cell-based, human
Experimental: as §1

[13] = biological target: T1, αvβ3 integrins on human GBM (U87 MG) cell (Homo sapiens, UniProt P05106+P06756); experiment: Competition assay against [^64Cu]Cu-NOTA-c(RGDfK) on U87 MG cells; format: binding; conditions: in competition to [^64Cu]Cu-NOTA-c(RGDfK), 1 h incubation
T1 construct: host or cells: U87 MG

[14] = 0.5 h after 1 h incubation and wash

Compound: N.N.[Cl][Pt][Cl] [Cisplatin]
EC50 (U87 MG cells [1]; 24 h, read-out: EC50 24 h U87 MG): 90 ± 8 µM
EC50 (U87 MG cells [1]; 48 h, read-out: EC50 48 h U87 MG): 25 ± 6 µM
EC50 (U87 MG cells [1]; 72 h, read-out: EC50 72 h U87 MG): 20 ± 5 µM
increase of treatment efficacy compared to radiotherapy alone [2]: 35%
EC50 [3]: 15 ± 5 µM
EC50 ([3]; read-out: EC50 24 h SVG p12, 24 h, SVG p12): 35 ± 4 µM
EC50 ([3]; read-out: EC50 48 h SVG p12, 48 h, SVG p12): 15 ± 7 µM

Compound: N=C(N)NCCC[C@@H]1NC(=O)[C@H](CCCCNC(=O)[C@H](CCCCNC(=O)c2cc(-c3ccccn3)nc(-c3ccccn3)c2)NC(=O)COCCOCCNC(=O)CN2CCN(CC(=O)O)CCN(CC(=O)O)CC2)NC(=O)[C@@H](Cc2ccccc2)NC(=O)[C@H](CC(=O)O)NC(=O)CNC1=O [metal not drawn]
Internalized activity 1h SVG p12 (SVG p12 cells [4]; 1 h): 2.85 ± 0.56 % total activity (CPM) /106 cells
Internalized activity 2h SVG p12 (SVG p12 cells [4]; 2 h): 2.46 ± 0.90 % total activity (CPM) /106 cells
Internalized activity 4h SVG p12 (SVG p12 cells [4]; 4 h): 2.79 ± 0.38 % total activity (CPM) /106 cells
Internalized activity 24h SVG p12 (SVG p12 cells [4]; 24 h): 7.40 ± 1.43 % total activity (CPM) /106 cells
Internalized activity 48h SVG p12 (SVG p12 cells [4]; 48 h): 8.21 ± 0.74 % total activity (CPM) /106 cells
Uptake 1h U87 MG (U87 MG cells [5]; 1 h, 37 °C, Table S1): 6.21 ± 1.58 % total activity (CPM) /106 cells
Uptake 2h U87 MG (U87 MG cells [5]; 2 h, Table S1): 6.89 ±1.73 % total activity (CPM) /106 cells
Uptake 4h U87 MG (U87 MG cells [5]; 4 h, Table S1): 10.33 ± 1.86 % total activity (CPM) /106 cells
uptake in U87 MG cells (U87 MG cells [5]; 24 h): 38.8 ± 1.8%
Uptake 24h U87 MG (U87 MG cells [5]; 24 h, Table S1): 38.76 ± 1.82 % total activity (CPM) /106 cells
uptake relative to [^64Cu]Cu-NOTA-TP (U87 MG cells [5]; 24 h, U87 MG): approximately 1.3 times
uptake relative to [^64Cu]Cu-NOTA-c(RGDfK) (U87 MG cells [5]; 24 h, U87 MG): ~2.7 times
Uptake 48h U87 MG (U87 MG cells [5]; 48 h, Table S1): 37.56 ± 1.30 % total activity (CPM) /106 cells
free ^64Cu in plasma supernatant by radio-TLC [6]: no detectable free ^64Cu
Uptake 1h SVG p12 (SVG p12 cells [7]; 1 h): 3.63 ± 0.21 % total activity (CPM) /106 cells
Uptake 2h SVG p12 (SVG p12 cells [7]; 2 h): 4.96 ± 0.89 % total activity (CPM) /106 cells
Uptake 4h SVG p12 (SVG p12 cells [7]; 4 h): 5.80 ± 0.49 % total activity (CPM) /106 cells
Uptake 24h SVG p12 (SVG p12 cells [7]; 24 h): 10.87 ± 2.17 % total activity (CPM) /106 cells
Uptake 48h SVG p12 (SVG p12 cells [7]; 48 h): 8.38 ± 1.70 % total activity (CPM) /106 cells
improvement in potency compared to nonradioactive analogue (U87 MG cells [1]; 24 h, vs ^natCu-NOTA-TP-c(RGDfK)): approximately 2500 fold
binding to bovine serum albumin (bovine serum albumin): 52%
Efflux (retained activity) 0.5h U87 MG (U87 MG cells [8]; [14]): 88.93 ± 9.47 % total activity (CPM) /106 cells
Efflux (retained activity) 1h U87 MG (U87 MG cells [8]; 1 h after wash): 93.32 ± 1.47 % total activity (CPM) /106 cells
Efflux (retained activity) 2h U87 MG (U87 MG cells [8]; 2 h after wash): 83.19 ± 4.21 % total activity (CPM) /106 cells
Efflux (retained activity) 4h U87 MG (U87 MG cells [8]; 4 h after wash): 76.55 ± 2.59 % total activity (CPM) /106 cells
Efflux (retained activity) 24h U87 MG (U87 MG cells [8]; 24 h after wash): 51.36 ± 2.08 % total activity (CPM) /106 cells
toxicity in normal SVG p12 astrocytes [3]: minimal toxicity
Efflux (retained activity) 0.5h SVG p12 (SVG p12 cells [9]; [14]): 85.25 ± 8.63 % total activity (CPM) /106 cells
Efflux (retained activity) 1h SVG p12 (SVG p12 cells [9]; 1 h after wash): 75.50 ± 10.93 % total activity (CPM) /106 cells
Efflux (retained activity) 2h SVG p12 (SVG p12 cells [9]; 2 h after wash): 54.29 ± 8.47 % total activity (CPM) /106 cells
Efflux (retained activity) 4h SVG p12 (SVG p12 cells [9]; 4 h after wash): 59.78 ± 2.75 % total activity (CPM) /106 cells
Efflux (retained activity) 24h SVG p12 (SVG p12 cells [9]; 24 h after wash): 31.32 ± 1.01 % total activity (CPM) /106 cells
nuclear uptake (SVG p12 cells [10]; SVG p12, 24 h): 2.5 ± 0.8%
nuclear uptake (SVG p12 cells [10]; SVG p12, 48 h): 0.9 ± 0.2%
nuclear uptake (SVG p12 cells [10]; SVG p12, 72 h): 0.9 ± 0.3%
cytoplasmic distribution (U87 MG cells [11]; 24 h): 17.4 ± 1.5%
nuclear uptake (U87 MG cells [11]; 24 h): 6.0 ± 0.5%
cytoplasmic distribution (U87 MG cells [11]; 48 h): 21.0 ± 0.7%
cytoplasmic distribution (U87 MG cells [11]; 72 h): 15.4 ± 0.5%
Internalized activity 1h U87 MG (U87 MG cells [12]; 1 h, Table S2): 5.50 ± 0.80 % total activity (CPM) /106 cells
internalized fraction (U87 MG cells [12]; 1 h, U87 MG): 5.5 ± 0.8 % CPM/10^6 cells
Internalized activity 2h U87 MG (U87 MG cells [12]; 2 h, Table S2): 5.67 ± 0.67 % total activity (CPM) /106 cells
Internalized activity 4h U87 MG (U87 MG cells [12]; 4 h, Table S2): 7.35 ± 1.31 % total activity (CPM) /106 cells
internalization in U87 MG cells (U87 MG cells [12]; 24 h): 28.0 ± 1.0%
Internalized activity 24h U87 MG (U87 MG cells [12]; 24 h, Table S2): 28.03 ± 1.02 % total activity (CPM) /106 cells
internalization compared to [^64Cu]Cu-NOTA-TP (U87 MG cells [12]; 24 h, U87 MG): over 1.5 fold
internalization compared to [^64Cu]Cu-NOTA-c(RGDfK) (U87 MG cells [12]; 24 h, U87 MG): more than 2.4 fold
internalized fraction (U87 MG cells [12]; 24 h, U87 MG): 28.0 ± 1.0 % CPM/10^6 cells
Internalized activity 48h U87 MG (U87 MG cells [12]; 48 h, Table S2): 24.08 ± 1.63 % total activity (CPM) /106 cells

IC50 [13]: 0.0106 ± 0.0032 µM
Compound: N=C(N)NCCC[C@@H]1NC(=O)[C@H](CCCCNC(=O)CNC(=O)COCCOCCNC(=O)CN2CCN(CC(=O)O)CCN(CC(=O)O)CC2)NC(=O)[C@@H](Cc2ccccc2)NC(=O)[C@H](CC(=O)O)NC(=O)CNC1=O [^natCu-NOTA-c(RGDfK), metal not drawn]
